Converted amounts (≈) assume the structure as drawn.
Tests used:
[1] = tested on: IL-8 (CXCL8) release; assay: LPS-induced IL-8 (CXCL8) release in PMA-differentiated U937 cells (ELISA); type: cell-based, human; settings: at 100 μM
Procedure: Effects of macrolides on lipopolysaccharide (LPS)-induced CXCL8 release in PMA-differentiated U937 cells. […] LPS-induced CXCL8 release was evaluated by ELISA. Values represent means of three experiments±SEM. ^##p<0.01 (vs. non-treatment control), *p<0.05, **p<0.01 (vs. treatment with LPS only).
The human monocytic cell line U937 was obtained from the American Type Culture Collection (ATCC, Rockville, Md.). PBMCs from COPD patients were obtained from Brompton hospital and separated by AccuSPIN (Sigma-Aldrich). Cells were cultured in complete growth medium (RPMI 1640) (Sigma-Aldrich) supplemented with 10% fetal bovine serum (FBS) and 1% L-glutamine at 37° C. in a humidified atmosphere with 5% CO2. U937 cells were differentiated into adherent macrophage-like morphology by exposure to PMA (50 ng/mL) for 48 hrs in complete growth medium. Cell viability was assessed microscopically by trypan blue staining. Cell toxicity was determined by MTT assay as needed. This study was approved by the ethics committee of the Royal Brompton Hospitals, and all subjects gave written informed consent.
TNFα and IL-8 concentrations in the supernatant of cell cultures were determined by sandwich ELISA according to the manufacturer's instructions (R&D Systems Europe, Abingdon, UK).
The results were expressed as the mean±SEM. Comparisons of data in two groups were performed using the Student's t test or the Wilcoxon signed rank test. Multiple comparisons were made by one-way ANOVA with post hoc test (Dunnett's) as appropriate. The difference was considered significant at p<0.05. IC50 values (50% inhibitory concentration) for macrolides for production of cytokines or MMP9 were calculated using Prism 4.0 (GraphPad Software Inc., San Diego, Calif.).

[2] = tested on: P. aeruginosa (PA); assay: MIC by microdilution, 36 clinical and laboratory strains with known efflux phenotype; type: cell-based
Procedure: (§1) MICs of 36 clinical and laboratory strains of PA with known efflux phenotype are measured by microdilution in cation-adjusted Muller-Hinton broth (CA-MHB) or in RPMI medium (commonly used in eukaryotic cell culture). Phe-Arg-β-naphthylamide (PaβN, 50 mg/L) and EGTA 5 mM are used to inhibit efflux pumps and alter OM integrity, respectively. P. aeruginosa strain ATCC PAO1 is used as reference. PA12 is a clinical strain overexpressing the 4 main efflux systems (MexAB, MexCD, MexEF, MexXY), PA403 is a laboratory strain deleted in the genes coding for the 4 efflux systems. A series of reference strains or of clinical isolates for which the expression of genes coding for efflux pumps is known is also used for MICs determinations. MICs are measured by microdilution in MH broth or in RPMI medium (used for eukaryotic cells culture) supplemented with 10% of fetal calf serum, or in MH broth supplemented by increasing amounts of serum. EGTA (5 mM) was used as a chelating agent (disrupting outer membrane integrity) and PaβN (50 mg/L) as an unspecific efflux inhibitor.

[3] = tested on: P. aeruginosa PA12; assay: MIC by microdilution with PaβN or EGTA, clinical isolate overexpressing efflux pumps; type: cell-based; settings: Pseudomonas aeruginosa
Procedure: as §1

## CC[C@H]1OC(=O)[C@H](C)C(=O)[C@H](C)[C@@H](O[C@@H]2O[C@H](C)C[C@H](N(C)C)[C@H]2O)[C@](C)(OC)C[C@@H](C)C(=O)[C@H](C)[C@H]2N(CCCCn3cnc(-c4cccnc4)c3)C(=O)O[C@]12C [TEL, telithromycin]
[1]; Homo sapiens, U-937, read-out: IC50, LPS-induced IL-8 release: NE at 100 μM, U937 cells
  IC50: > 100 µM
[1]
  effect on CXCL8 production: did not inhibit
[2]; strain 1, efflux AB+, MHB
  MIC: 128 µg/mL (≈ 158 µM)
[2]; strain 1, efflux AB+, RPMI
  MIC: 4 µg/mL (≈ 4.93 µM)
[2]; strain 2, efflux CD+, MHB
  MIC: 256 µg/mL (≈ 315 µM)
[2]; strain 2, efflux CD+, RPMI
  MIC: 16 µg/mL (≈ 19.7 µM)
[2]; strain 3, efflux EF+, MHB
  MIC: 64 µg/mL (≈ 78.8 µM)
[2]; strain 3, efflux EF+, RPMI
  MIC: 0.25 µg/mL (≈ 0.308 µM)
[2]; strain 4, efflux XY+, MHB
  MIC: 128 µg/mL (≈ 158 µM)
[2]; strain 4, efflux XY+, RPMI
  MIC: 4 µg/mL (≈ 4.93 µM)
[2]; strain 11, efflux AB + CD+, MHB
  MIC: 64 µg/mL
[2]; strain 11, efflux AB + CD+, RPMI
  MIC: 1 µg/mL
[2]; strain 12, efflux AB + CD + EF + XY+, MHB
  MIC: 128 µg/mL
[2]; strain 12, efflux AB + CD + EF + XY+, RPMI
  MIC: 4 µg/mL
[2]; strain 16, efflux AB + XY+, MHB
  MIC: 128 µg/mL
[2]; strain 16, efflux AB + XY+, RPMI
  MIC: 4 µg/mL
[2]; strain 21, efflux AB+, MHB
  MIC: 64 µg/mL (≈ 78.8 µM)
[2]; strain 21, efflux AB+, RPMI
  MIC: 2 µg/mL (≈ 2.46 µM)
[2]; strain 22, efflux XY+, MHB
  MIC: 128 µg/mL (≈ 158 µM)
[2]; strain 22, efflux XY+, RPMI
  MIC: 2 µg/mL (≈ 2.46 µM)
[2]; strain 40, efflux EF+, MHB
  MIC: 64 µg/mL (≈ 78.8 µM)
[2]; strain 40, efflux EF+, RPMI
  MIC: 2 µg/mL (≈ 2.46 µM)
[2]; strain 41, efflux CD+, MHB
  MIC: 256 µg/mL (≈ 315 µM)
[2]; strain 41, efflux CD+, RPMI
  MIC: 4 µg/mL (≈ 4.93 µM)
[2]; strain 48, efflux CD + EF + XY+, MHB
  MIC: 128 µg/mL
[2]; strain 48, efflux CD + EF + XY+, RPMI
  MIC: 8 µg/mL
[2]; strain 49, efflux CD + EF + XY+, MHB
  MIC: 128 µg/mL
[2]; strain 49, efflux CD + EF + XY+, RPMI
  MIC: 4 µg/mL
[2]; strain 63, efflux AB + EF + XY+, MHB
  MIC: 128 µg/mL
[2]; strain 63, efflux AB + EF + XY+, RPMI
  MIC: 4 µg/mL
[2]; strain 68, efflux AB + XY+, MHB
  MIC: 128 µg/mL
[2]; strain 68, efflux AB + XY+, RPMI
  MIC: 4 µg/mL
[2]; strain 133, efflux EF + XY+, MHB
  MIC: 128 µg/mL
[2]; strain 133, efflux EF + XY+, RPMI
  MIC: 4 µg/mL
[2]; strain 156, efflux EF + XY+, MHB
  MIC: 128 µg/mL
[2]; strain 156, efflux EF + XY+, RPMI
  MIC: 2 µg/mL
[2]; strain 168B, efflux CD + XY+, MHB
  MIC: 256 µg/mL
[2]; strain 168B, efflux CD + XY+, RPMI
  MIC: 4 µg/mL
[2]; strain 207, efflux AB + EF + XY+, MHB
  MIC: 128 µg/mL
[2]; strain 207, efflux AB + EF + XY+, RPMI
  MIC: 4 µg/mL
[2]; strain 266B, efflux AB + CD+, MHB
  MIC: 256 µg/mL
[2]; strain 266B, efflux AB + CD+, RPMI
  MIC: 4 µg/mL
[2]; strain 333A, efflux AB + EF+, MHB
  MIC: 64 µg/mL
[2]; strain 333A, efflux AB + EF+, RPMI
  MIC: 2 µg/mL
[2]; strain 335, efflux AB + EF+, MHB
  MIC: 128 µg/mL
[2]; strain 335, efflux AB + EF+, RPMI
  MIC: 4 µg/mL
[2]; strain 391, efflux EF−, MHB
  MIC: 64 µg/mL (≈ 78.8 µM)
[2]; strain 391, efflux EF−, RPMI
  MIC: 2 µg/mL (≈ 2.46 µM)
[2]; strain 392, efflux CD−, MHB
  MIC: 32 µg/mL (≈ 39.4 µM)
[2]; strain 392, efflux CD−, RPMI
  MIC: 0.5 µg/mL (≈ 0.616 µM)
[2]; strain 394, efflux XY−, MHB
  MIC: 64 µg/mL (≈ 78.8 µM)
[2]; strain 394, efflux XY−, RPMI
  MIC: 1 µg/mL (≈ 1.23 µM)
[2]; strain 395, efflux HI−, MHB
  MIC: 32 µg/mL (≈ 39.4 µM)
[2]; strain 395, efflux HI−, RPMI
  MIC: 2 µg/mL (≈ 2.46 µM)
[2]; strain 396, ompH−, MHB
  MIC: 16 µg/mL (≈ 19.7 µM)
[2]; strain 396, ompH−, RPMI
  MIC: 0.25 µg/mL (≈ 0.308 µM)
[2]; strain 397, efflux AB−, MHB
  MIC: 8 µg/mL (≈ 9.85 µM)
[2]; strain 397, efflux AB−, RPMI
  MIC: 0.03 µg/mL (≈ 0.0369 µM)
[2]; strain 398, efflux CD−, MHB
  MIC: 8 µg/mL (≈ 9.85 µM)
[2]; strain 398, efflux CD−, RPMI
  MIC: 0.25 µg/mL (≈ 0.308 µM)
[2]; strain 399, efflux AB − EF−, MHB
  MIC: 4 µg/mL (≈ 4.93 µM)
[2]; strain 399, efflux AB − EF−, RPMI
  MIC: 0.25 µg/mL (≈ 0.308 µM)
[2]; strain 400, efflux XY−, MHB
  MIC: 8 µg/mL (≈ 9.85 µM)
[2]; strain 400, efflux XY−, RPMI
  MIC: 0.25 µg/mL (≈ 0.308 µM)
[2]; strain 401, ompH−, MHB
  MIC: 4 µg/mL (≈ 4.93 µM)
[2]; strain 401, ompH−, RPMI
  MIC: 1 µg/mL (≈ 1.23 µM)
[2]; strain 403, efflux AB − CD − EF − XY−, MHB
  MIC: 4 µg/mL (≈ 4.93 µM)
[2]; strain 403, efflux AB − CD − EF − XY−, RPMI
  MIC: 0.5 µg/mL (≈ 0.616 µM)
[2]; strain 405, efflux AB − CD − EF − XY−, MHB
  MIC: 8 µg/mL (≈ 9.85 µM)
[2]; strain 405, efflux AB − CD − EF − XY−, RPMI
  MIC: 0.25 µg/mL (≈ 0.308 µM)
[2]; strain 434, efflux AB + CD + XY+, MHB
  MIC: 128 µg/mL
[2]; strain 434, efflux AB + CD + XY+, RPMI
  MIC: 4 µg/mL
[2]; strain PAO1, REFERENCE, MHB
  MIC: 256 µg/mL (≈ 315 µM)
[2]; strain PAO1, REFERENCE, RPMI
  MIC: 2 µg/mL (≈ 2.46 µM)
[3]; PA12, PA12, CA-MHB, EGTA 5 mM
  MIC: 32 µg/mL (≈ 39.4 µM)
[3]; PA12, PA12, CA-MHB, PaβN 50 mg/L
  MIC: 4 µg/mL (≈ 4.93 µM)
[3]; PA12, PA12, CA-MHB, control conditions (CT)
  MIC: 128 µg/mL (≈ 158 µM)
[3]; PA12, PA12, RPMI, EGTA 5 mM
  MIC: 1 µg/mL (≈ 1.23 µM)
[3]; PA12, PA12, RPMI, PaβN 50 mg/L
  MIC: 4 µg/mL (≈ 4.93 µM)
[3]; PA12, PA12, RPMI, control conditions (CT)
  MIC: 4 µg/mL (≈ 4.93 µM)

Reference: US9861616B2, “Methods for treating respiratory diseases and formulations therefor” (priority 2013, dated 2018)
